# Measurements taken from patent US20050234076A1, “Triazolopyrimidines” (priority 2002, published 2005).
# Experiments:
# Assay type in all cases: in vivo
# Alternaria solani = assay: Alternaria Test (tomato)/protective; conditions: tomato plants, protective spray, 750 g/ha, evaluation 7 days after inoculation; 100% = no infection
# Procedure: Alternaria Test (tomato)/protective Solvent: 49 parts by weight of N,N-dimethylformamide Emulsifier: 1 part by weight of alkylaryl polyglycol ether To produce a suitable preparation of active compound, 1 part by weight of active compound is mixed with the stated amounts of solvent and emulsifier, and the concentrate is diluted with water to the desired concentration. […] The plants then remain at 96% relative atmospheric humidity and at a temperature of 20° C.
# Venturia inaequalis = assay: Venturia Test (apple)/protective; conditions: 240 h, apple plants, protective spray, evaluation 10 days after inoculation, 100% = no infection, read-out: Efficacy in %
# Procedure: Venturia Test (apple)/protective Solvents: 24.5 parts by weight of acetone • 24.5 parts by weight of dimethylacetamide Emulsifier: 1.0 parts by weight alkylaryl polyglycol ether To produce a suitable preparation of active compound, 1 part by weight of active compound is mixed with the stated amounts of solvent and emulsifier, and the concentrate is diluted with water to the desired concentration. To test for protective activity, young plants are sprayed with the preparation of active compound at the stated application rate. […] The plants are then placed in a greenhouse at about 21° C. and a relative atmospheric humidity of about 90%.
# Pyricularia oryzae = conditions: rice plants, protective spray, 500 g/ha, evaluation 7 days after inoculation; 100% = no infection
SMILES,pest or weed control at 100 g/ha (Venturia inaequalis),other results
Fc1cc(F)c(-c2c(Cl)nc3ncnn3c2N2Cc3ccccc3CO2)c(F)c1 [drawing 100],–,Efficacy in % (Alternaria solani): 100%
Fc1ccc(-c2c(Cl)nc3ncnn3c2N2OC3CCC2C3)c(Cl)c1 (stereo not shown) [drawing 62],100%,–
Fc1ccc(-c2c(Cl)nc3ncnn3c2N2CCCCO2)c(Cl)c1 [drawing 47],100%,–
Fc1cccc(F)c1-c1c(Cl)nc2ncnn2c1N1CCCCO1 [drawing 57],100%,–
Fc1cc(F)c(-c2c(Cl)nc3ncnn3c2N2Cc3ccccc3CO2)c(F)c1 [drawing 45],100%,–
Clc1cccc(Cl)c1-c1c(Cl)nc2ncnn2c1N1CCCCN1 [drawing 64],99%,–
Fc1cc(F)c(-c2c(Cl)nc3ncnn3c2N2CCCCN2)c(C(F)(F)F)c1 [drawing 68],100%,–
Fc1cccc(Cl)c1-c1c(Cl)nc2ncnn2c1N1CCCCN1 [drawing 106],–,Efficacy in % (Pyricularia oryzae): 100%
CC1CCON1c1c(-c2c(F)cc(F)cc2F)c(Cl)nc2ncnn12 (stereo not shown) [drawing 55],100%,–
Fc1ccc(-c2c(Cl)nc3ncnn3c2N2CCCCO2)c(Cl)c1 [drawing 104],–,Efficacy in % (Pyricularia oryzae): 100%
Fc1cccc(F)c1-c1c(Cl)nc2ncnn2c1N1CCCCN1 [drawing 67],96%,–
Fc1cc(F)c(-c2c(Cl)nc3ncnn3c2N2OC3CCC2C3)c(C(F)(F)F)c1 (stereo not shown) [drawing 53],100%,–
Fc1ccc(-c2c(Cl)nc3ncnn3c2N2OC3CCC2C3)c(F)c1 (stereo not shown) [drawing 60],100%,–
Fc1cc(F)c(-c2c(Cl)nc3ncnn3c2N2CCC=N2)c(F)c1 [drawing 103],–,Efficacy in % (Alternaria solani): 95%
CC1CCCON1c1c(-c2c(F)cc(F)cc2F)c(Cl)nc2ncnn12 (stereo not shown) [drawing 54],100%,–
CC1CCON1c1c(-c2c(F)cccc2Cl)c(Cl)nc2ncnn12 (stereo not shown) [drawing 59],100%,–
Clc1ccc(-c2c(Cl)nc3ncnn3c2N2CCCCN2)c(Cl)c1 [drawing 69],95%,–
Fc1cc(F)c(-c2c(Cl)nc3ncnn3c2N2CCCCO2)c(F)c1 [drawing 46],100%,–
Fc1cc(F)c(-c2c(Cl)nc3ncnn3c2N2NC3CCC2C3)c(F)c1 (stereo not shown) [drawing 65],93%,–
Fc1ccc(-c2c(Cl)nc3ncnn3c2N2CCCCO2)c(F)c1 [drawing 105],–,Efficacy in % (Pyricularia oryzae): 100%
Fc1cccc(Cl)c1-c1c(Cl)nc2ncnn2c1N1NC2CCC1C2 (stereo not shown) [drawing 66],100%,–
Fc1cc(F)c(-c2c(Cl)nc3ncnn3c2N2OC3CCC2C3)c(F)c1 (stereo not shown) [drawing 51],100%,–
Clc1ccccc1-c1c(Cl)nc2ncnn2c1N1OC2CCC1C2 (stereo not shown) [drawing 56],99%,–
Fc1cc(F)c(-c2c(Cl)nc3ncnn3c2N2CCC=N2)c(F)c1 [drawing 63],96%,–
Fc1cccc(Cl)c1-c1c(Cl)nc2ncnn2c1N1OC2CCC1C2 (stereo not shown) [drawing 58],100%,–
Fc1cc(F)c(-c2c(Br)nc3ncnn3c2N2CCCCN2)c(F)c1 [drawing 71],93%,–
Fc1ccc(-c2c(Cl)nc3ncnn3c2N2CCCCO2)c(Cl)c1 [drawing 102],–,Efficacy in % (Alternaria solani): 100%
Fc1cc(F)c(-c2c(Cl)nc3ncnn3c2N2CCCCO2)c(F)c1 [drawing 101],–,Efficacy in % (Alternaria solani): 100%
